Assay results published in the NIST ThermoML archive (doi:10.1016/j.tca.2017.10.004).
Numbers after ± are expanded uncertainties.

Assay: excess molar enthalpy (molar enthalpy of mixing); xn = mol fraction of the nth substance listed
Details: 100 kPa, Liquid, Calvet calorimetry

## [Li] [lithium] + [Zn]
1006 K, x2 = 0.0993
  excess molar enthalpy: -2.2 ± 1.2 kJ/mol

## [Zn] [zinc] + [Ga]
813 K, x1 = 0.9
  excess molar enthalpy: 0.8 ± 0.6 kJ/mol
1017 K, x1 = 0.0996
  excess molar enthalpy: 0.5 ± 0.2 kJ/mol
1018 K, x1 = 0.5
  excess molar enthalpy: 1.6 ± 0.4 kJ/mol
